Columns and labels:
Format in all cases: physicochemical
[1] = Coloring of solutions of the compound of Preparation Example 7 with additives after storage (Experimental Example 5); design: key to Degree of coloring, Sample solution after storage at 60° C. for 6 days / Degree of coloring, Control solution after storage at 60° C. for 6 days: −: No coloring; +: Coloring; ++: Marked coloring; details: for Degree of coloring, Sample solution after storage at 60° C. for 6 days: 10 mg compound of Preparation Example 7 in methanol 2 mL + 1 mL of 10 mg/mL aqueous solution of the additive; for Coloring of the solution of the compound of Preparation Example 7 by the influence of the additive: 60° C. for 6 days, methanol/water; for Degree of coloring, Control solution after storage at 60° C. for 6 days: control: 10 mg compound of Preparation Example 7 in methanol 2 mL + 1 mL purified water, no additive
Description: The compound obtained according to the method of Preparation Example 7 was weighed in an amount of 10 mg in a stoppered test tube, added with methanol (2 mL) for dissolution, and then further added with a 10 mg/mL aqueous solution of each of additives shown in Table 5 (1 mL) to prepare a sample solution. Separately, the compound obtained according to the method of Preparation Example 7 was weighed in an amount of 10 mg in a stoppered test tube, added with methanol (2 mL) for dissolution, and then further added with purified water (1 mL) to prepare a control solution. The prepared sample solutions and the control solution were stored in an incubator (Minijet Oven, Toyama Sangyo) at 60° C. for 6 days.

[2] = Coloring of compound solutions with glucose after storage (Experimental Example 4); design: key: −: No coloring; +: Coloring; ++: Marked coloring; details: for Degree of coloring, Sample solution after storage at 60° C. for 6 days: 10 mg compound in methanol 2 mL + 1 mL glucose aqueous solution 10 mg/mL; for Degree of coloring, Control solution after storage at 60° C. for 6 days: 10 mg compound in methanol 2 mL + 1 mL purified water (no glucose)
Description: The compounds of Preparation Examples 2 to 5 and 7 were each weighed in an amount of 10 mg in a stoppered test tube, added with methanol (2 mL), dissolved in the methanol, and then further added with a glucose aqueous solution (1 mL) of 10 mg/mL concentration to prepare sample solutions. Separately, the compounds of Preparation Examples 2 to 5 and 7 were each weighed in an amount of 10 mg in a stoppered test tube, added with methanol (2 mL), dissolved in the methanol, and then further added with purified water (1 mL) to prepare control solutions. The prepared sample solutions and the control solutions were stored in an incubator (Minijet Oven, Toyama Sangyo) at 60° C. for 6 days.

[3] = Solubility of crystal forms in an aqueous solvent

O=C[C@H](O)[C@@H](O)[C@H](O)CO [Xylose]
Degree of coloring, Sample solution after storage at 60° C. for 6 days [1]: ++ | Coloring of the solution of the compound of Preparation Example 7 by the influence of the additive [1]: coloring | Degree of coloring, Control solution after storage at 60° C. for 6 days [1]: −

OC[C@H]1O[C@@](CO)(O[C@H]2O[C@H](CO)[C@@H](O)[C@H](O)[C@H]2O)[C@@H](O)[C@@H]1O [Sucrose]
Degree of coloring, Sample solution after storage at 60° C. for 6 days [1]: − | Coloring of the solution of the compound of Preparation Example 7 by the influence of the additive [1]: no coloring | Degree of coloring, Control solution after storage at 60° C. for 6 days [1]: −

OC[C@H]1O[C@H](O[C@H]2[C@H](O)[C@@H](O)[C@H](O)O[C@@H]2CO)[C@H](O)[C@@H](O)[C@@H]1O [Maltose]
Degree of coloring, Sample solution after storage at 60° C. for 6 days [1]: + | Coloring of the solution of the compound of Preparation Example 7 by the influence of the additive [1]: coloring | Degree of coloring, Control solution after storage at 60° C. for 6 days [1]: −

Nc1cc(CCC(=O)O)cc(-c2ccc3[nH]ccc3c2)c1OCC1CCCC1 [Compound of Preparation Example 3, 3-[3-amino-4-cyclopentylmethyloxy-5-(1H-indol-5-yl)phenyl]propionic acid]
Degree of coloring, Sample solution after storage at 60° C. for 6 days [2]: ++ | Degree of coloring, Control solution after storage at 60° C. for 6 days [2]: −

OC[C@H]1O[C@@H](O[C@H]2[C@H](O)[C@@H](O)C(O)O[C@@H]2CO)[C@H](O)[C@@H](O)[C@H]1O (some centres unmarked) [Lactose]
Degree of coloring, Sample solution after storage at 60° C. for 6 days [1]: + | Coloring of the solution of the compound of Preparation Example 7 by the influence of the additive [1]: coloring | Degree of coloring, Control solution after storage at 60° C. for 6 days [1]: −

OC[C@@H](O)[C@@H](O)CO [Erythritol]
Degree of coloring, Sample solution after storage at 60° C. for 6 days [1]: − | Coloring of the solution of the compound of Preparation Example 7 by the influence of the additive [1]: no coloring | Degree of coloring, Control solution after storage at 60° C. for 6 days [1]: −

O=C(CO)[C@@H](O)[C@H](O)[C@H](O)CO [Fructose]
Degree of coloring, Sample solution after storage at 60° C. for 6 days [1]: + | Coloring of the solution of the compound of Preparation Example 7 by the influence of the additive [1]: coloring | Degree of coloring, Control solution after storage at 60° C. for 6 days [1]: −

Cc1ccc(CCOc2c(N)cc(CCC(=O)O)cc2-c2ccc3ccccc3c2)cc1 [Compound of Preparation Example 2, 3-{3-amino-4-[2-(4-methylphenyl)ethyloxy]-5-(naphthalen-2-yl)phenyl}propionic acid]
Degree of coloring, Sample solution after storage at 60° C. for 6 days [2]: + | Degree of coloring, Control solution after storage at 60° C. for 6 days [2]: −

Nc1cc(CCC(=O)O)cc(-c2ccc3[nH]ncc3c2)c1OC1Cc2ccccc2C1 [Compound of Preparation Example 5, 3-[3-amino-4-(indan-2-yloxy)-5-(1H-indazol-5-yl)phenyl]propionic acid]
Degree of coloring, Sample solution after storage at 60° C. for 6 days [2]: + | Degree of coloring, Control solution after storage at 60° C. for 6 days [2]: −

Cn1ccc2cc(-c3cc(CCC(=O)O)cc(N)c3OCC3CCCC3)ccc21 [Compound of Preparation Example 4, 3-[3-amino-4-cyclopentylmethyloxy-5-(1-methyl-1H-indol-5-yl)phenyl]propionic acid]
Degree of coloring, Sample solution after storage at 60° C. for 6 days [2]: ++ | Degree of coloring, Control solution after storage at 60° C. for 6 days [2]: −

OC[C@@H](O)[C@@H](O)[C@H](O)[C@H](O)CO [D-Mannitol]
Degree of coloring, Sample solution after storage at 60° C. for 6 days [1]: − | Coloring of the solution of the compound of Preparation Example 7 by the influence of the additive [1]: no coloring | Degree of coloring, Control solution after storage at 60° C. for 6 days [1]: −

Cn1ncc2cc(-c3cc(CCC(=O)O)cc(N)c3OC3Cc4ccccc4C3)ccc21 [Compound of Preparation Example 7, 3-[3-amino-4-(indan-2-yloxy)-5-(1-methyl-1H-indazol-5-yl)phenyl]propionic acid]
Solubility in an aqueous solvent compared with the type B crystals [3]: higher | Degree of coloring, Sample solution after storage at 60° C. for 6 days [2]: ++ | Degree of coloring, Control solution after storage at 60° C. for 6 days [2]: −

OC[C@H]1O[C@H](O[C@H]2O[C@H](CO)[C@@H](O)[C@H](O)[C@H]2O)[C@H](O)[C@@H](O)[C@@H]1O [Trehalose]
Degree of coloring, Sample solution after storage at 60° C. for 6 days [1]: − | Coloring of the solution of the compound of Preparation Example 7 by the influence of the additive [1]: no coloring | Degree of coloring, Control solution after storage at 60° C. for 6 days [1]: −

— patent US9006225B2, “Stable pharmaceutical composition” (Asahi Kasei Pharma Corporation, priority 2008, dated 2015)
